Two molecules from PMC5004841, “Development of a rapid phenotypic test for HCV protease inhibitors with potential use in clinical decisions” (Genetics and Molecular Biology, 2016) can be followed below.

The subject of one experiment is HCV NS3-4A protease T54A. As to conditions: mutant T54A vs NS3 WT. The text has this: (§1) The HCV genotype 1b NS3-4A protease domain from the plasmid pFKI389 Luc-ubi-neo/NS3-3'/ET (kindly provided by Dr. Ralf Bartenschlager) was amplified with the antisense primer 5'-[…]-3'containing a BamHI enzyme restriction site and the sense primer 5'-[…]-3' containing a HindIII enzyme restriction site. This fragment was cloned into a pET21dhis-TEV bacterial expression vector (a pET21d plasmid, which was modified to codify a 6x histidine tag followed by a cleavage site recognized by the Tobacco Etch virus nTev protease at the protein N-terminus). The single chain NS3-4A protease contains the protease domain (182 amino acids) and a 20-aa portion of the cofactor NS4A ([Abrahim-Vieira et al., 2014]).
(§2) Protein expressions were carried out as described previously with some modifications to simplify techniques and to perform the protocol in a smaller inoculum volume ([Abrahim-Vieira et al., 2014]). Transformed BL21 (λDE3) cells were grown at 37°C in 500 mL of LB medium containing […] ampicilin until an OD600 of 0.6-0.8 was reached. Then, cultures were induced with 0.5 mM isopropyl-1-thio-β-D-galactopyranoside (IPTG) and incubated with shaking at 25 °C for 4 h. Cells expressing NS3-4A constructs were harvested by centrifugation and stored at −80 °C. All resuspension steps were performed at 4 °C. Frozen pellets were resuspended in 12.5 mL of buffer A (Tris-HCl 50 mM pH 7.5; NaCl 300 mM; 2 mM β-mercaptoethanol; 10% glycerol; 0.5% Triton X-100). After resuspension, lysates were treated with lysozyme (5 mg/mL) for 1 h with stirring, subjected to 20 cycles of 15 s of sonication and 30 s of resting. Lysates were cleared by centrifugation at 12.000 g for 30 min and the supernatant filtered with 0.22 μM filter units (Nalgene). After filtration, supernatants were applied in 2 mL of Ni-NTA Agarose (Life Technologies) previously washed with distilled water and equilibrated with buffer A. Agarose resin was washed three times with buffer A and recombinant proteins were eluted with buffer A with 125, 250 and 500 mM imidazol (buffer B). […] Fractions were pooled and dialyzed overnight against buffer A with SnakeSkin Dialysis Tubing 10K MWCO (Thermo Scientific). Purified NS3-4A constructs were quantified with Micro BCA Protein Assay Kit (Thermo Scientific).
(§3) All enzyme inhibition assays were performed in nonbinding black surface 96-well plates (Corning).

Experiment [1] deals with HCV NS3-4A protease T54S + V170I. As to conditions: mutant T54S + V170I vs NS3 WT.
Excerpt: as §1, §2, §3

For experiment [2], the system named is HCV NS3-4A protease V170I. As to conditions: mutant V170I vs NS3 WT.
Excerpt: as §1, §2, §3

In experiment [3] the test system is HCV NS3-4A protease V158I. As to conditions: mutant V158I vs NS3 WT.
Excerpt: as §1, §2, §3

For the next experiment, the system named is HCV NS3-4A protease V36M. As to conditions: mutant V36M vs NS3 WT.
Excerpt: as §1, §2, §3

The target in experiment [4] is T1, HCV genotype 1b NS3-4A protease WT (Hepatitis C virus genotype 1b, UniProt Q9WMX2).
T1 construct: covalently joined to the NS3 protease domain (aa 1-182) via an amino acid linker GSGS; 6x histidine tag (N); TEV protease cleavage site (N); NS4A central peptide (NS4A aa 21-32), fused N-terminally of NS3; made in house; host or cells: E. coli BL21 (λDE3)
Kind of experiment: FRET enzyme inhibition assay, NS3 WT (SensoLyte 520 HCV protease assay Kit). The class given is biochemical, hepatitis C virus (HCV) genotype 1b.
Excerpt: as §1
Protein expressions were carried out as described previously with some modifications to simplify techniques and to perform the protocol in a smaller inoculum volume ([Abrahim-Vieira et al., 2014]). Transformed BL21 (λDE3) cells were grown at 37°C in 500 mL of LB medium containing […] ampicilin until an OD600 of 0.6-0.8 was reached. Then, cultures were induced with 0.5 mM isopropyl-1-thio-β-D-galactopyranoside (IPTG) and incubated with shaking at 25 °C for 4 h. Cells expressing NS3-4A constructs were harvested by centrifugation and stored at −80 °C. […] Purified NS3-4A constructs were quantified with Micro BCA Protein Assay Kit (Thermo Scientific). […]

T1 sequence (Q9WMX2 1027-1208 limits assumed): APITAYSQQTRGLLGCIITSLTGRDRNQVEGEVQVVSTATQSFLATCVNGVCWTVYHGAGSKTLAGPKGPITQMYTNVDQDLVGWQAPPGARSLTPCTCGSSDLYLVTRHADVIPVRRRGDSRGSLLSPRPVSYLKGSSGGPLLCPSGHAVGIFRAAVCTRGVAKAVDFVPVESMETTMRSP

`COc1ccc2c(O[C@@H]3C[C@H]4C(=O)N[C@]5(C(=O)NS(=O)(=O)C6CC6)C[C@H]5/C=C\CCCCN(C)C(=O)[C@@H]4C3)cc(-c3nc(C(C)C)cs3)nc2c1C` [Simeprevir]: the “fold change (mutant IC50 median/WT IC50 median)” value with HCV NS3-4A protease T54A is reported as 6.3 fold; in experiment [1], 3.8 fold; in experiment [2], 3.2 fold; in experiment [3], 0.1 fold; in the experiment on HCV NS3-4A protease V36M it was 0.4 fold. The midpoint of inhibition in experiment [4], the IC50, lay at 17 nM.

Consider `CCC[C@H](NC(=O)[C@@H]1[C@H]2CCC[C@H]2CN1C(=O)[C@@H](NC(=O)[C@@H](NC(=O)c1cnccn1)C1CCCCC1)C(C)(C)C)C(=O)C(=O)NC1CC1` [Telaprevir], for which inhibition in experiment [4] was half-maximal at 130 nM (IC50).
